Earlier results in PMC9042378 (RSC Advances, 2021).

Tested on: Tyr

Row | Molecule | Tyr inhibition type
1 | O=C(O[C@@H]1Cc2c(O)cc(O)cc2O[C@@H]1c1ccc(O)c(O)c1)c1cc(O)c(O)c(O)c1 [epicatechin gallate] | Mixed inhibition
2 | O=c1cc(CO)occ1O [kojic acid] | Mixed inhibition
3 | mallotophilippen B | Mixed inhibition
4 | O=C1c2c(O)cc(O)cc2O[C@H](c2cc(O)c(O)c(O)c2)[C@H]1O [dihydromyricetin] | Mixed inhibition
5 | CCC(C)C(=O)c1c(O)c(Cc2c(O)c(C)c(O)c(C(=O)C(C)C)c2O)c(O)c2c1OC(C)(C)C=C2 (centres unmarked) [mallotophilippen A] | Mixed inhibition
